# Assay results taken from patent US20130072527A1, “METHODS OF USING SUSTAINED RELEASE AMINOPYRIDINE COMPOSITIONS” (Acorda Therapeutics, Inc., priority 2008, published 2013).
# Like-named read-outs stand apart in the source and are kept apart here.
# What was measured:
# [1] = system: patients with multiple sclerosis; assay: Phase 3 study MS-F204: leg strength (LEMMT); assay type: in vivo, human
# Source text: (§1) The period of efficacy evaluation (visits 2-6) included 8 weeks of twice daily treatment. An additional week was incorporated to allow pharmacodynamic evaluation at Visit 7, which was not part of the primary endpoint. (See FIG. 1 for study design). In particular, this study is a double-blind, placebo-controlled, parallel group, 13-week study (one week post screening, two weeks of single-blind placebo run-in, eight weeks of double-blind treatment, and two weeks of follow-up) in patients with multiple sclerosis. […] One of the goals of this study is to confirm the primary outcome measure in a second prospective study, and equal randomization is the most efficient way to test this outcome. […] In order to ensure at least 184 patients complete the study, approximately 100 patients were randomized to each group.
# Secondary Outcome. The prospectively defined secondary outcome was leg strength, measured by Lower Extremity Manual Muscle Test (LEMMT) in 8 muscle groups, comparing the treated Timed Walk Responders and Timed Walk Non-Responders with placebo-treated patients.
# […] (p-values compared to placebo). […] (Analyzed by t-tests of the least-squares means using the mean square error via an ANOVA model with effects for responder analysis group and center.)
# [2] = system: patients with multiple sclerosis; assay: Phase 3 study MS-F204: Timed 25 Foot Walk (Timed Walk Response); assay type: in vivo, human
# [3] = system: patients with multiple sclerosis; assay: Phase 3 study MS-F204: other measures (MSWS-12, SGI, CGI, Ashworth score); assay type: in vivo, human
# Source text: as §1
# Other measures. A number of other measures, not powered for statistical comparison, were included for integrated analyses across studies: MSWS-12, SGI, CGI, Ashworth score.
# Spasticity may be assessed in addition to walking speed and leg strength. When assessed, spasticity is evaluated at the screening visit and each subsequent visit using the Ashworth Spasticity Score. Preferably, the evaluation is prior to the LEMMT and includes evaluation of six lower extremity muscle groups; knee flexors, knee extensors and hip adductors on both the right and left side of the body. […]
# [4] = system: normal adult myelinated axons; settings: Shi and Blight, 1997, cited from earlier work
# [5] = system: chronically injured spinal cord; settings: (941 ng/mL); Shi et al., 1997; cited from earlier work
# [6] = Single-dose pharmacokinetics in healthy volunteers; settings: administered orally
# [7] = Oral administration of non-sustained release 4-aminopyridine in animals
# [8] = 14C-4-aminopyridine single oral dose in rats (HWI 6379-101); settings: for tissue-to-blood ratio: rat, oral dose; for AUC / Tmax / t1/2: rats, 1 mg/kg single oral
# Procedure: Studies were performed in rats and dogs using ^14C-labeled 4-aminopyridine (1 mg/kg) given as a single oral gavage dose in solution.
# In a single-dose study, rats were administered ^14C-labeled 4-aminopyridine (1 mg/kg) p.o. Three animals per time point were sacrificed 1, 3, 8, and 24 hours post-dose. Blood was collected and tissues were excised for determination of radioactivity.
# [9] = Raoof et al., 1997, cited from earlier work
# [10] = Rat i.v. and p.o. pharmacokinetics 2 mg/kg (M 2001-03); settings: for Vdss: single p.o. dose 2 mg/kg; for bioavailability: rat, plasma, oral, 2 mg/kg
# [11] = Single- and repeated-dose toxicity studies; assay type: in vivo; settings: orally administered; most often
# Procedure: Toxicology. In single- and repeated-dose toxicity studies, the dosing regimen greatly affected the rate of mortality and incidence of clinical signs in all species studied (with the possible exception of the mouse). In general, higher mortality rates and greater incidences of adverse clinical signs were noted when 4-aminopyridine was administered in a single large dose as compared to when the same total dose was given as two, three, or four equally divided sub-doses. Toxic responses to orally administered 4-aminopyridine were rapid in onset, most often occurring within the first 2 hours post-dose.
# These clinical signs were not unexpected and represent exaggerated pharmacology of 4-aminopyridine.
# [12] = Plasma protein binding of fampridine
# [13] = In situ absorption study (stomach, small intestine); assay type: in vivo
# Source text: Absorption. 4-Aminopyridine is rapidly absorbed following oral administration.
# [14] = 14C-4-aminopyridine single oral dose in dogs (HWI 6379-102); assay type: in vivo; settings: for AUC / Tmax / t1/2: dogs, 1 mg/kg single oral
# Source text: In both species, 14C 4-aminopyridine was rapidly absorbed.
# [15] = one hour post-dose, 1 mg/kg p.o.
compound,measurement,setting,value
Nc1ccncc1 [4-aminopyridine],leg strength (LEMMT) versus placebo treated or Timed Walk Responder groups,[1]; Fampridine-treated Timed Walk Non-Responders,not significantly different
same,leg strength (LEMMT) versus placebo-treated patients,"[1]; Timed Walk Responders, p=0.028",significantly improved
same,Timed Walk response rate,"[2]; 10 mg b.i.d., with concomitant interferons, natalizumab, or glatiramer acetate (n=70)",42.9%
same,Timed Walk response rate,"[2]; 10 mg b.i.d., without concomitant immunomodulators (n=49)",42.9%
same,improvement in walking speed from baseline,"[2]; Timed Walk Responders, throughout the treatment period",approximately 25%
same,proportion of MS patients with consistently improved walking speed (Timed Walk Response),"[2]; eight weeks of treatment, 10 mg b.i.d.",42%
same,"MSWS-12 score, SGI, and CGI",[3]; among Timed Walk Responders but not Timed Walk Non-Responders,improvement
same,Ashworth Score compared to the placebo treated group,[3]; significant in an unplanned analysis,improvement
same,concentration below which the action potential shows little or no sensitivity,[4]; (9.4 μg/mL),below 100 μM
same,concentration causing gradual depolarization of the axon resting potential,[4]; (94.1 μg/mL),above 1 mM
same,most effective concentration,[5],about 10 μM
same,absorption from the gastrointestinal tract,[6],completely absorbed
same,time of peak plasma concentrations after dosing,[7],≤ 1 h
same,elimination half-life,[8]; blood,1.21 h
same,elimination half-life,[8]; cerebellum,1.24 h
same,elimination half-life,[8]; cerebrum,1.63 h
same,"regional apparent permeability coefficient (papp×10^−6, cm/sec)",[9]; large intestine,2.9 ×10^−6 cm/sec
same,"regional apparent permeability coefficient (papp×10^−6, cm/sec)",[9]; upper small intestine,22.7 ×10^−6 cm/sec
same,Vdss,[10]; female rats,947.5 mL
same,bioavailability,[10]; female,~55%
same,Vdss,[10]; male rats,1094.4 mL
same,bioavailability,[10]; male,~66.5%
same,Vdss difference between males and females adjusted for body weight,"[10]; rats, 2 mg/kg p.o.",2%
same,Vdss lower in females than in males,"[10]; rats, 2 mg/kg p.o., not statistically significant",13%
same,peak plasma concentrations lower in females than in males,"[10]; rats, oral administration",38%
same,onset of toxic responses post-dose,[11],≤ 2 h
same,fraction unbound,[12],0.97 to 0.99
same,half-life,[13]; small intestine,0.67 h
same,half-life,[13]; stomach,1.81 h
^14C-4-Aminopyridine,radioactive dose in the carcass,"[8]; 3 hours post-dose, 1 mg/kg p.o.",15.4%
same,tissue-to-blood ratio,[8]; cerebellum,1.48
same,tissue-to-blood ratio,[8]; cerebrum,3.07
same,dose accounted for in total (radioactivity),[8]; [15],58.3%
same,"radioactivity in blood, % of dose",[8]; [15],0.7%
same,"radioactivity in kidney, % of dose",[8]; [15],1.6%
same,"radioactivity in liver, % of dose",[8]; [15],2.6%
same,radioactivity in the carcass,[8]; [15],51%
same,AUC,[8]; females,506 ± 63.3 ng·h/mL
same,Tmax,[8]; females,0.5 h
same,t1/2,[8]; females,1.4 ± 0.17 h
same,AUC,[8]; males,498 ± 17.6 ng·h/mL
same,Tmax,[8]; males,1.0 h
same,t1/2,[8]; males,1.1 ± 0.04 h
same,AUC,[14]; females,1920 ± 150 ng·h/mL
same,Tmax,[14]; females,0.8 ± 0.3 h
same,t1/2,[14]; females,1.8 ± 0.04 h
same,AUC,[14]; males,2030 ± 406 ng·h/mL
same,Tmax,[14]; males,1.0 ± 0 h
same,t1/2,[14]; males,2.1 ± 0.14 h
same,Cmax and AUC in the dog relative to the rat,[14]; doses equal on a mg/kg basis (1 mg/kg oral),approximately four-fold higher
